From patent publication US6486203B1, “Treating inflammatory diseases of the head and neck with cyclooxygenase-2 inhibitors” (Cornell Research Foundation, Inc., priority 1998, dated 2002)

Legend:
Assay type in all cases: in vivo, human
[1] = system: viral pharyngitis; test: Treatment of a patient with viral pharyngitis with lozenges (Example II); conditions: person with viral pharyngitis; lozenges containing 100 mg four times a day
Protocol: A person has symptoms of a sore throat. They are evaluated by their physician who detects an erythematous pharynx. A diagnosis of viral pharyngitis is made.

[2] = system: sinusitis; test: Treatment of a patient with sinusitis (Example III); conditions: person with sinusitis; 200 mg orally twice a day, together with amoxicillin; after taking one dose
Protocol: A person presents to their physician complaining of fever and headache. On physical examination, they have tenderness over their maxillary sinus. A diagnosis of sinusitis is made. The patient is treated with amoxicillin 500 mg orally every eight hours for ten days. They are also given Celebrex 200 mg orally twice a day for seven days.

[3] = system: tonsillitis; test: Treatment of a patient with tonsillitis (Example I); conditions: person with tonsillitis; 200 mg orally twice a day, together with amoxicillin; after taking one dose
Protocol: A person has symptoms of a sore throat and fever. They are evaluated by a physician who notes inflamed tonsils and diagnoses tonsillitis. The patient is treated with amoxicillin 500 mg orally every eight hours for ten days. Additionally, they are given Celebrex (celecoxib) 200 mg orally twice a day for seven days.

[4] = system: periodontitis; test: Treatment of a patient with periodontitis with resveratrol lozenges (Example V); conditions: tobacco-smoking person with periodontitis; lozenges of 1 gram twice a day; four months later
Text: A […] tobacco-smoking […] is referred to a periodontist for bleeding gums and is diagnosed with periodontitis.

[5] = system: sore throat; test: Treatment of sore throat with resveratrol lozenges (Example IV); conditions: person with sore throat; lozenges of 1 gram, four per day for two days
Text: A person has symptoms of a sore throat.

`Cc1ccc(-c2cc(C(F)(F)F)nn2-c2ccc(S(N)(=O)=O)cc2)cc1` [Celebrex, 4-[5-(4-Methylphenyl)-3-(trifluoromethyl)-1H-pyrazol-1-yl]benzenesulfonamide] was tested, and the “resolution of sore throat” value [1] was “complete resolution of their sore throat within two days”, the “improvement in sinus pain” value [2] was “marked improvement in their sinus pain” and the “improvement in throat pain” value [3] was “marked improvement in their throat pain”.

For `Oc1ccc(/C=C/c2cc(O)cc(O)c2)cc1` [resveratrol], the bleeding in gums [4] was “markedly decreased bleeding in their gums”, the “periodontal disease on examination” value [4] was “improvement in periodontal disease is detected on examination” and the “relief of throat discomfort” value [5] was “rapid relief of their throat discomfort”.
